# Test results reported in PubChem BioAssay AID1963840 (Molecular Pharmacology Branch, DTP, NCI, 2024).
# Test system: 695427-040-R-J1-PDC complex spheroid viability
# Assay: Anticancer human tumor 695427-040-R-J1-PDC patient-derived colon adenocarcinoma cell line growth inhibition [POLQ]
# Settings: for IC50: curve of first compound; for viability, T/C: stronger effect = lower value
# Procedure: Multicellular complex tumor spheroid response to Polymerase (POL) inhibitors (novobiocin, ART-558, RP6685) in combination with a variety of drugs and investigational agents in selected tumor cell lines
# The POL inhibitors (novobiocin, ART-558, and RP6685) were evaluated both individually and in combination with standard of care and investigational anticancer small molecules within a complex spheroid model of solid tumors. . Complex spheroids include a stromal component modeled by human endothelial cells (HUVEC) and fibroblasts modeled by human mesenchymal stem cells (MSCs). The concentration ranges selected for each drug and investigational agent were based upon clinically achievable concentrations if the clinical Cmax of the agent was known.
# Compounds. The drugs and investigational agents: novobiocin (NSC847541), ART-558 (NSC835418), RP-6685 (NSC848927), peposertib (NSC802822), ceralasertib (NSC780249), elimusertib (NSC800525), camonsertib (NSC841442), AZD-1390 (NSC803789), olaparib (NSC753686), talazoparib (NSC767125), rucaparib (NSC756644), sotorasib (NSC818433), MRTX-1133 (NSC836407), SN-38 (NSC673596), topotecan (NSC609699), epotoside (NSC141540), doxorubicin (NSC123127), gemcitabine (NSC613327), 5-fluorouracil (NSC19893), paclitaxel (NSC125973), vemurafenib (NSC761431), MSA-2 (NSC828583), SN-011 (NSC837082), adavosertib (NSC754352), prexasertib (NSC758257), carboplatin (NSC241240) and oxaliplatin (NSC266046), were obtained from the National Cancer Institute (NCI) Developmental Therapeutics Program Chemical Repository (21). The FDA-approved anticancer drug set is available from the Developmental Therapeutics Program at https://dtp.cancer.gov/organization/dscb/obtaining/. […] The stock solutions were prepared in dimethyl sulfoxide (DMSO, Sigma-Aldrich, St. Louis, MO, cat. D2650), except for the platinum compounds which were prepared in saline (Quality Biological, Gaithersburg, MD, cat. 114-055-101), at 800-fold the tested concentration and stored at -70 degrees C prior to their use. All drugs and investigational agents were tested over a range starting from a high concentration at or near the clinical Cmax and decreasing in half-log increments. If the clinical Cmax for an agent had not been determined, the highest concentration tested was 10 microM, except for SN-38, which was tested at a high concentration of 1 microM.
# Cell Culture. All cells were maintained in an incubator at 37 degrees C and 5% CO2 with 95% humidity. The PDC lines were cultured according to standard operating procedures established by the NCI PDMR (https://pdmr.cancer.gov). Table 3 of the manuscript, lists the cell lines along with the number of the three cell types plated to form the mct-spheroids and media for tumor cell growth. After thawing, all PDC lines, except 997537-175-T-J1-PDC and 415267-285-R-J2-PDC, were cultured in Matrigel-coated flasks prepared with a working solution of 1X Ham's F-12 nutrient mix, without supplementation (Thermo Fisher Scientific, cat. 11765054), 100 U/mL penicillin-streptomycin (Thermo Fisher Scientific, cat. 15140122), and 2.5% Matrigel (Corning Inc., Corning, NY, cat. 354248) for the first three passages. The two PDC lines 997537-175-T-J1-PDC and 415267-285-R-J2-PDC were cultured on uncoated flasks. The 857933-349-R-J2-PDC line was cultured in 6C/Colon 1B media containing advanced DMEM/F-12 (Thermo Fisher Scientific, cat. 12634028), 10 mM HEPES (Thermo Fisher Scientific, cat. 15630080), 1X GlutaMAX supplement (Thermo Fisher Scientific, cat. 35050061), 0.1 mg/mL primocin (InvivoGen, San Diego, CA, cat. ant-pm-2), 10% defined fetal bovine serum, heat inactivated (HyClone Laboratories Inc., Logan, UT, cat. SH30070.03HI), 50% L-WRN conditioned media (ATCC, cat. CRL-3276), 1.25 mM N-Acetyl-L-cysteine (Sigma-Aldrich, cat. A9165), 10 mM nicotinamide (Sigma-Aldrich, cat. N0636), 1X B-27 supplement (Thermo Fisher Scientific, cat. 17504044), 1X N-2 supplement (Thermo Fisher Scientific, cat. […]
# [1] = second compound 0.0316 µM, first compound 0.0316 µM
# [2] = second compound 0.0316 µM, first compound 0.1 µM
# [3] = second compound 0.0316 µM, first compound 0.316 µM
# [4] = second compound 0.0316 µM, first compound 1 µM
# [5] = second compound 0.0316 µM, first compound 3.16 µM
# [6] = second compound 0.0316 µM, first compound 10 µM
# [7] = second compound 0.1 µM, first compound 0.0316 µM
# [8] = second compound 0.1 µM, first compound 0.1 µM
# [9] = second compound 0.1 µM, first compound 0.316 µM
# [10] = second compound 0.1 µM, first compound 1 µM
# [11] = second compound 0.1 µM, first compound 3.16 µM
# [12] = second compound 0.1 µM, first compound 10 µM
# [13] = second compound 0.316 µM, first compound 0.0316 µM
# [14] = second compound 0.316 µM, first compound 0.1 µM
# [15] = second compound 0.316 µM, first compound 0.316 µM
# [16] = second compound 0.316 µM, first compound 1 µM
# [17] = second compound 0.316 µM, first compound 3.16 µM
# [18] = second compound 0.316 µM, first compound 10 µM
# [19] = second compound 1 µM, first compound 0.0316 µM
# [20] = second compound 1 µM, first compound 0.1 µM
# [21] = second compound 1 µM, first compound 0.316 µM
# [22] = second compound 1 µM, first compound 1 µM
# [23] = second compound 1 µM, first compound 3.16 µM
# [24] = second compound 1 µM, first compound 10 µM
# [25] = second compound 3.16 µM, first compound 0.0316 µM
# [26] = second compound 3.16 µM, first compound 0.1 µM
# [27] = second compound 3.16 µM, first compound 0.316 µM
# [28] = second compound 3.16 µM, first compound 1 µM
# [29] = second compound 3.16 µM, first compound 3.16 µM
# [30] = second compound 3.16 µM, first compound 10 µM
# [31] = second compound 10 µM, first compound 0.0316 µM
# [32] = second compound 10 µM, first compound 0.1 µM
# [33] = second compound 10 µM, first compound 0.316 µM
# [34] = second compound 10 µM, first compound 1 µM
# [35] = second compound 10 µM, first compound 3.16 µM
# [36] = second compound 10 µM, first compound 10 µM
# 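Also: spheroids exposed to compounds for seven days.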
# 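For viability, T/C in this document: 100% = DMSO vehicle control viability.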
compound,measurement,setting,value
CC(C)n1c(=O)n(C)c2cnc3cc(F)c(-c4ccc(OCCCN5CCCCC5)nc4)cc3c21 + COC1C(OC(N)=O)C(O)C(Oc2ccc3c(O)c(NC(=O)c4ccc(O)c(CC=C(C)C)c4)c(=O)oc3c2C)OC1(C)C,IC50,second compound 0.0316 µM,> 10 µM
same,IC50,second compound 0.1 µM,> 10 µM
same,IC50,second compound 0.316 µM,> 10 µM
same,IC50,second compound 1 µM,> 10 µM
same,IC50,second compound 3.16 µM,> 10 µM
same,IC50,second compound 10 µM,> 10 µM
same,"viability, T/C",[1],99.3%
same,"viability, T/C",[2],98.7%
same,"viability, T/C",[3],109%
same,"viability, T/C",[4],113%
same,"viability, T/C",[5],110%
same,"viability, T/C",[6],82.6%
same,"viability, T/C",[7],114%
same,"viability, T/C",[8],101%
same,"viability, T/C",[9],112%
same,"viability, T/C",[10],118%
same,"viability, T/C",[11],101%
same,"viability, T/C",[12],80.1%
same,"viability, T/C",[13],111%
same,"viability, T/C",[14],103%
same,"viability, T/C",[15],110%
same,"viability, T/C",[16],101%
same,"viability, T/C",[17],114%
same,"viability, T/C",[18],74.4%
same,"viability, T/C",[19],110%
same,"viability, T/C",[20],104%
same,"viability, T/C",[21],108%
same,"viability, T/C",[22],112%
same,"viability, T/C",[23],105%
same,"viability, T/C",[24],77.2%
same,"viability, T/C",[25],106%
same,"viability, T/C",[26],102%
same,"viability, T/C",[27],103%
same,"viability, T/C",[28],109%
same,"viability, T/C",[29],102%
same,"viability, T/C",[30],79%
same,"viability, T/C",[31],106%
same,"viability, T/C",[32],99.5%
same,"viability, T/C",[33],110%
same,"viability, T/C",[34],113%
same,"viability, T/C",[35],114%
same,"viability, T/C",[36],77.6%
CCCS(=O)(=O)Nc1ccc(F)c(C(=O)c2c[nH]c3ncc(-c4ccc(Cl)cc4)cc23)c1F + Cc1cccc(N(C)C(=O)C2C(O)CCN2c2nc(C)cc(C(F)(F)F)c2C#N)c1,IC50,second compound 0.0316 µM,> 10 µM
same,IC50,second compound 0.1 µM,> 10 µM
same,IC50,second compound 0.316 µM,> 10 µM
same,IC50,second compound 1 µM,> 10 µM
same,IC50,second compound 3.16 µM,> 10 µM
same,IC50,second compound 10 µM,> 10 µM
same,"viability, T/C",[1],113%
same,"viability, T/C",[2],105%
same,"viability, T/C",[3],102%
same,"viability, T/C",[4],100%
same,"viability, T/C",[5],116%
same,"viability, T/C",[6],86.8%
same,"viability, T/C",[7],129%
same,"viability, T/C",[8],111%
same,"viability, T/C",[9],104%
same,"viability, T/C",[10],109%
same,"viability, T/C",[11],111%
same,"viability, T/C",[12],82.6%
same,"viability, T/C",[13],101%
same,"viability, T/C",[14],118%
same,"viability, T/C",[15],96.3%
same,"viability, T/C",[16],109%
same,"viability, T/C",[17],123%
same,"viability, T/C",[18],77.5%
same,"viability, T/C",[19],112%
same,"viability, T/C",[20],111%
same,"viability, T/C",[21],102%
same,"viability, T/C",[22],108%
same,"viability, T/C",[23],127%
same,"viability, T/C",[24],73.2%
same,"viability, T/C",[25],100%
same,"viability, T/C",[26],104%
same,"viability, T/C",[27],103%
same,"viability, T/C",[28],114%
same,"viability, T/C",[29],112%
same,"viability, T/C",[30],104%
same,"viability, T/C",[31],101%
same,"viability, T/C",[32],100%
same,"viability, T/C",[33],92%
same,"viability, T/C",[34],98.8%
same,"viability, T/C",[35],108%
same,"viability, T/C",[36],77.9%
O=C(c1cc(Cc2n[nH]c(=O)c3ccccc23)ccc1F)N1CCN(C(=O)C2CC2)CC1 + Cc1cccc(N(C)C(=O)C2C(O)CCN2c2nc(C)cc(C(F)(F)F)c2C#N)c1,IC50,second compound 0.0316 µM,> 10 µM
same,IC50,second compound 0.1 µM,> 10 µM
same,IC50,second compound 0.316 µM,> 10 µM
same,IC50,second compound 1 µM,> 10 µM
same,IC50,second compound 3.16 µM,> 10 µM
same,IC50,second compound 10 µM,> 10 µM
same,"viability, T/C",[1],107%
same,"viability, T/C",[2],98.3%
same,"viability, T/C",[3],101%
same,"viability, T/C",[4],103%
same,"viability, T/C",[5],104%
same,"viability, T/C",[6],93.9%
same,"viability, T/C",[7],111%
same,"viability, T/C",[8],101%
same,"viability, T/C",[9],97.9%
same,"viability, T/C",[10],100%
same,"viability, T/C",[11],113%
same,"viability, T/C",[12],95.3%
same,"viability, T/C",[13],109%
same,"viability, T/C",[14],101%
same,"viability, T/C",[15],99%
same,"viability, T/C",[16],93.1%
same,"viability, T/C",[17],98.4%
same,"viability, T/C",[18],96.9%
same,"viability, T/C",[19],98.5%
same,"viability, T/C",[20],94.5%
same,"viability, T/C",[21],97.6%
same,"viability, T/C",[22],92.8%
same,"viability, T/C",[23],101%
same,"viability, T/C",[24],91.2%
same,"viability, T/C",[25],103%
same,"viability, T/C",[26],94%
same,"viability, T/C",[27],102%
same,"viability, T/C",[28],91.4%
same,"viability, T/C",[29],103%
same,"viability, T/C",[30],103%
same,"viability, T/C",[31],89.4%
same,"viability, T/C",[32],88%
same,"viability, T/C",[33],97.9%
same,"viability, T/C",[34],90.4%
same,"viability, T/C",[35],92.3%
same,"viability, T/C",[36],78.9%
